{"source": "patent US8143225B2", "about": "(priority 2002, dated 2012)", "key": {"[1]": {"test_system": "adult males and females treated for nocturia", "assay": "Clinical observations in adult males and females treated with desmopressin for nocturia", "type": "in vivo, human", "source_text": "Hyponatremia can result in seizures, cardiac arrhythmias, cerebral edema and death."}, "clinical": {"assay": "clinical", "details": "male, human, in vivo", "description": "Twenty-four healthy non-smoking male volunteers were enrolled in the present study. The study was designed as a one-centre, open-labelled, randomized, balanced, 4-way cross-over phase I study. […] Between the doses there was a washout period of 72 hours. In order to standardize the buccal mucosa before administration of the orodispersible tablet, the subjects were asked to avoid foods, chewing gun etc. Subjects were allowed to brush their teeth in the morning before dosing, but without toothpaste. […] 3.2 (Pharsight Corporation, US). […] Values below LOQ not followed by values above the LOQ are excluded from the NCA analysis, and set to zero in the descriptive statistics on concentrations."}, "[2]": {"assay": "Bioavailability of desmopressin conventional tablets (Comparative Example 4)", "details": "male, human, in vivo, po, 200 μg", "source_text": "Thirty-six healthy male volunteers (Caucasian, Black and Hispanic) were enrolled in this study, which was designed as an open label, single dose, 3-way crossover study."}, "[3]": {"details": "human, in vivo, cited from earlier work"}, "[4]": {"details": "in vivo; cited from earlier work"}}, "note": "Like-named read-outs stand apart in the source and are kept apart here."}
{"smiles": "NC(=O)CC[C@@H]1NC(=O)[C@H](Cc2ccccc2)NC(=O)[C@H](Cc2ccc(O)cc2)NC(=O)CCSSC[C@@H](C(=O)N2CCC[C@H]2C(=O)N[C@H](CCCN=C(N)N)C(=O)NCC(N)=O)NC(=O)[C@H](CC(N)=O)NC1=O", "note": "[desmopressin, 1-desamino-8-D-arginine vasopressin]", "values": [{"measurement": "incidence of nocturia", "setting": "[1]; oral doses 100 to 400 mcg and intranasal doses 10 to 20 mcg", "result": "decreased the incidence of nocturia"}, {"measurement": "incidence of hyponatremia", "setting": "[1]; standard oral doses 100 to 400 mcg and intranasal doses 10 to 20 mcg, nocturia patients", "result": "unexpectedly high incidence of hyponatremia"}, {"measurement": "bioavailability", "setting": "clinical", "result": "0.23 to 0.38", "unit": "%"}, {"measurement": "bioavailability", "setting": "clinical; bioavailability", "result": 0.3, "unit": "%"}, {"measurement": "bioavailability", "setting": "[2]; oral 1×200 μg tablet (Comparative Example 2)", "result": 0.16, "unit": "%"}, {"measurement": "bioavailability", "setting": "[2]; oral 2×100 μg tablets (Comparative Example 3)", "result": 0.13, "unit": "%"}, {"measurement": "% Bioavailability", "setting": "[3]; iv", "result": "Intravenous (100) %"}, {"measurement": "% Bioavailability", "setting": "[3]; po", "result": "Oral (0.1) %"}, {"measurement": "bioavailability", "setting": "[3]; po", "result": "0.1-0.15%"}, {"measurement": "% Bioavailability", "setting": "[3]; sc", "result": "Subcutaneous (±90) %"}, {"measurement": "absorption", "setting": "[4]", "result": "not significantly absorbed"}]}
